According to ChEMBL document CHEMBL1770056, “2-Arylimidazo[2,1-b]benzothiazoles: a new family of amyloid binding agents with potential for PET and SPECT imaging of Alzheimer's brain” (Bioorg Med Chem Lett, 2011):

Legend:
[1] = Displacement of [3H]BTA-1 from amyloid beta 1 to 40 by competitive binding assay
[2] = Binding affinity to amyloid beta 1 to 40

Work on `COc1ccc2c(c1)sc1nc(-c3ccc(N(C)C)cc3)cn12` yielded a Ki [1] of 0.0586 µM.
`COc1ccc2c(c1)sc1nc(-c3ccc(N)cc3)cn12` showed a Ki [1] of 0.0298 µM.
For `COc1ccc2c(c1)sc1nc(-c3ccc(N[11CH3])cc3)cn12`, the Ki [1] was 0.00609 µM.
With `Nc1ccc(-c2cn3c(n2)sc2cc(F)ccc23)cc1` the Ki [1] was 0.133 µM.
In the case of `CNc1ccc(-c2cn3c(n2)sc2cc(F)ccc23)cc1`, the Ki [1] is reported as 0.0381 µM.
`CN(C)c1ccc(-c2cn3c(n2)sc2cc(F)ccc23)cc1` showed a Ki [1] of 0.0429 µM.
For `Nc1ccc(-c2cn3c(n2)sc2cc(Br)ccc23)cc1`, the Ki [1] was 0.0288 µM.
`CNc1ccc(-c2cn3c(n2)sc2cc(Br)ccc23)cc1` showed a Ki [1] of 0.0345 µM.
For `CN(C)c1ccc(-c2cn3c(n2)sc2cc(Br)ccc23)cc1`, the Ki [1] was 0.0434 µM.
Work on `COc1ccc2c(c1)sc1nc(-c3ccc([123I])cc3)cn12` yielded a Ki [1] of 0.0109 µM.
With `Fc1ccc2c(c1)sc1nc(-c3ccc(I)cc3)cn12` the Ki [1] was 0.0419 µM.
With `Brc1ccc2c(c1)sc1nc(-c3ccc(I)cc3)cn12` the Ki [1] was 0.0211 µM.
Compound `Cc1ccc2c(c1)sc1nc(-c3ccc(I)cc3)cn12` has a Ki [1] of 0.0177 µM.
In the case of `COc1ccc2c(c1)sc1nc(-c3ccc(Br)cc3)cn12`, the Ki [1] is reported as 0.0094 µM.
For `Cc1ccc2c(c1)sc1nc(-c3ccc(Br)cc3)cn12`, the Ki [1] was 0.026 µM.
For `CN(C)c1ccc(-c2cn3cc([123I])ccc3n2)cc1`, the Ki [1] was […] and the Kd [2] was 0.01 µM.
`CNc1ccc(-c2nc3ccc(O)cc3s2)cc1` [PITTSBURGH COMPOUND B UNLABELLED] showed a Ki [1] of 0.0045 µM.
`[11CH3]Nc1ccc(-c2nc3ccc(O)cc3s2)cc1` [PITTSBURGH COMPOUND B] gave a Ki [1] of 0.011 µM and a Kd [2] of 0.01 µM.
